# Reference: PubChem BioAssay AID1259321 (Sanford-Burnham Center for Chemical Genomics, 2017)
# Calls of active or inactive are those of the source.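 Rule for the calls: active = half-maximal concentration for changing protein binding to DNA, from the fitted dose curve, below 10 micromolar; inactive = the rest.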
# Molecular target: Nuclear receptor subfamily 1 group D member 1 (Homo sapiens) (UniProt P20393)
# Assay: modulators of Rev-erb alpha DNA binding, dose response, biochemical, FITC-DNA, fluorescence polarization (AID 1259321)
# Chain of Nuclear receptor subfamily 1 group D member 1 (Homo sapiens) (P20393 whole entry, looked up): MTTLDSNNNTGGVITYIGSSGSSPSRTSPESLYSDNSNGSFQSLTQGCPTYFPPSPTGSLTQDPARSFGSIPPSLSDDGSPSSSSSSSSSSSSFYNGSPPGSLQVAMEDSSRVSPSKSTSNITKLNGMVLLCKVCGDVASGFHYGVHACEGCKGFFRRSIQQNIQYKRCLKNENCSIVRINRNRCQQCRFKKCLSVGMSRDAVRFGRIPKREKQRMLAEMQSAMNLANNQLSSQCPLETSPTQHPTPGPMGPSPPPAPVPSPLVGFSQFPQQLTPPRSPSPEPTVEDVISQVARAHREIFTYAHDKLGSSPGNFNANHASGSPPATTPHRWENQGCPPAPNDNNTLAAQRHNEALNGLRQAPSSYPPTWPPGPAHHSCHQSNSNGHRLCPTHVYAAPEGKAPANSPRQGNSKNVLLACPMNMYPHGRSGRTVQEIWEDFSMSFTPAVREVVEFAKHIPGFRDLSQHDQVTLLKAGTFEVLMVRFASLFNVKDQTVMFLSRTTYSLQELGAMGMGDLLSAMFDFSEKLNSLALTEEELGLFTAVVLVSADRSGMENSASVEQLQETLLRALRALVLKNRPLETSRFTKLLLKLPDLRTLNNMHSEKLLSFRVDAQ
row,Compound,IC50
1,COC(=O)c1ccc(Cn2ccc3ccc(-c4ccc5ccn(C(=O)c6ccc(C)cc6)c5c4)cc32)cc1,1.56 µM
2,Cc1ccc(-c2nn3c(C)nnc3s2)cc1NC(=O)c1ccc(-c2ccc(Cl)cc2Cl)o1,> 40 µM (inactive)
3,Brc1ccc(-c2nn3c(-c4ccccc4)nnc3s2)cc1,> 40 µM (inactive)
4,CCN(CC)C(=O)c1ccc(/C=C/c2c[nH]c3ccccc23)[n+](C)c1,inactive
5,COc1ccc(-c2ccc3c(c2)c(Sc2ccccc2)c(-c2cc(OC)cc(OC)c2)n3C)cc1,6.89 µM
6,N#Cc1ccc(Oc2ccc(-c3nc4ccccc4nc3-c3ccccc3)cc2)cc1C#N,4.49 µM
7,COc1ccc(S(=O)(=O)N2CCc3ccccc32)cc1C(=O)Nc1ccc(NC(C)=O)cc1,5.19 µM
8,O=C(CSc1ncnc2c1oc1ccccc12)Nc1cccc(F)c1,2.51 µM
9,CCN1/C(=C\c2ccc3ccccc3[n+]2CC)Sc2cc(C)ccc21,2.67 µM
10,CCN1C(=O)c2cccc3c(N)ccc(c23)C1=O,> 40 µM (inactive)
11,CC(=O)c1ccc(NC(=O)COC(=O)c2ccccc2Sc2ccccc2C#N)cc1,> 40 µM (inactive)
12,Cc1[nH]c2ccccc2c1/C=C/c1cc[n+](C)cc1,4.41 µM
13,Cc1cc(OC(C)C(=O)NCc2cccnc2)c2c(C)c(Cc3ccccc3)c(=O)oc2c1 (stereo not given),inactive
14,O=C(COc1ccc2ccccc2c1Br)NNC(=O)Nc1ccccc1,0.778 µM
15,COc1ccc(-c2c(C#Cc3ccsc3)c3cc(-c4ccc5c(c4)OCCO5)ccc3n2C)cc1,> 40 µM (inactive)
16,Cc1ccc(CNC(=O)c2cc3c(=O)n(C)c4ccccc4c3n2C)cc1,inactive
17,CCC(=O)c1ccc(N2CCN(S(=O)(=O)c3ccccc3)CC2)c(F)c1,2.96 µM
18,COC(=O)c1ccc(Cn2ccc3ccc(-c4ccc5ccn(C(=O)c6ccccc6OC)c5c4)cc32)cc1,5.24 µM
19,C/C(=N\N(Cc1ccccc1)c1ccccc1)c1ccncc1,6.97 µM
20,O=C(CSc1ncnc2c1oc1ccccc12)Nc1ccc2c(c1)OCCO2,> 40 µM (inactive)
21,Cc1ccccc1OCC(=O)Nc1cccc2nsnc12,4.7 µM
22,CN(C)c1ccc(C=C2SC(=S)NC2=O)cc1,inactive
23,Cn1c(=O)c2c(nc(SCC(=O)c3cccs3)n2Cc2ccc(F)cc2)n(C)c1=O,> 40 µM (inactive)
24,CCCCCC[n+]1ccccc1/C=C/c1ccc(N(C)C)cc1,7.24 µM
25,CCC(=O)c1cn(CC(=O)Nc2cccc(C)c2)c2ccccc12,> 40 µM (inactive)
26,Cc1ccc(CNc2nc3ccccc3n3nnnc23)cc1,inactive
27,Cc1sc2nc(N3CCOCC3)[nH]c(=O)c2c1-c1ccccc1,7.66 µM

row,Compound,IC50
1,O=[N+]([O-])c1ccc(N2CCCCCC2)c2nonc12,> 40 µM (inactive)
2,CC(=O)c1ccc(N2CCN(c3ccc4cc(S(=O)(=O)N5CCC(C)CC5)ccc4n3)CC2)cc1,8.62 µM
3,COC(=O)c1cc2cc(Cl)ccc2nc1SC,2.53 µM
4,CCN(CC)c1ccc(/C=C2\C(=O)NC(=S)N(C)C2=O)o1,4.36 µM
5,CCN(CC)C(=O)CSC1=C(C#N)C(c2cccs2)C=C(C)N1 (stereo not given),inactive
6,O=C(NCc1cccc(F)c1)c1cccc2c1C(=O)c1ccc(N3CCOCC3)cc1S2(=O)=O,3.69 µM
7,CCCCCn1c(=O)c(C(=O)Nc2ccccc2Cl)c(O)c2ccccc21,> 40 µM (inactive)
8,CCc1cc2ccc(OC)cc2nc1SCC(=O)Nc1cc(C)on1,> 40 µM (inactive)
9,C/C(=N\NC(=O)COc1cccc(C)c1)c1ccc2ccccc2c1O,7.63 µM
10,CC1(Cc2ccccc2C#N)C(=O)Nc2ccc(-c3ccccc3)cc21 (stereo not given),6.27 µM
11,O=C(CSc1nnc(-c2cccs2)o1)c1ccc2c(c1)OCO2,inactive
12,CCNC(=O)Nc1ccc2c(c1)C(=O)N(C)[C@H]1CC[C@H](CC(=O)N[C@H](C)c3ccccc3)O[C@@H]1CO2,inactive
13,COc1ccc(-c2cc3c(=O)n(CC(=O)Nc4ccc(C(C)=O)cc4)ncn3n2)cc1,inactive
14,CN1C(=O)C(=Cc2ccc(N3CCOCC3)o2)C(=O)N(C)C1=O,1.36 µM
15,COc1ccc(NC(=O)c2sc3cc(C(F)(F)F)cnc3c2-c2cccs2)cc1,> 40 µM (inactive)
16,N#Cc1c(N)nc(SCC(=O)NCCc2ccccc2)c(C#N)c1-c1cccs1,1.31 µM
17,O=c1c2ccccc2[nH]c(=S)n1Cc1ccc2c(c1)OCO2,2.5 µM
18,O=C(NCc1ccco1)c1ccc(Cn2c(=O)c3ccccc3n(Cc3cccc(F)c3)c2=O)cc1,2.43 µM
19,CC(=O)c1cccc(NC(=O)c2cccc(NC(=O)c3ccco3)c2)c1,1.57 µM
20,COc1ccccc1N1C(=O)c2cccc3c(N(C)CCO)ccc(c23)C1=O,8.2 µM
21,COCCN1C(=O)/C(=C/c2ccc(N3CCCC3)cc2C)SC1=S,6.19 µM
22,O=S(=O)(c1ccc2nc(N3CCN(c4ccccc4)CC3)ccc2c1)N1CCCCC1,inactive
23,CCOC(=O)/C(C#N)=C/c1cc2ccccc2nc1N1CCCCC1,> 40 µM (inactive)
24,CCOC(=O)c1cc2c(=O)c3ccccc3oc2nc1C,> 40 µM (inactive)
25,COc1cccc(NC(=O)CSc2ncnc3c2oc2ccccc23)c1,> 40 µM (inactive)
26,COc1ccc(N2C(=O)c3cccc4c(N(C)CCO)ccc(c34)C2=O)cc1,inactive
27,C=CCNC(=O)c1ccc(-c2nc(-c3ccc(Cl)cc3Cl)cs2)cc1,4.59 µM

row,Compound,IC50
1,CC(=O)c1ccc(Nc2ncnc3ccc(Br)cc23)cc1,inactive
2,CCc1nc(SCC(=O)NCCc2ccccc2)c2oc3ccccc3c2n1,1.57 µM
3,CCOC(=O)c1ccccc1NC(=O)c1cncc(Br)c1,7.27 µM
4,COc1cccc(C(=O)n2ccc3ccc(-c4ccc5ccn(Cc6ccccc6)c5c4)cc32)c1,1.31 µM
5,CN1CCS/C1=C/C=C1\SC(=S)N(CC(=O)O)C1=O,1.12 µM
6,Nc1ccc(-c2c3ccc(=O)cc-3oc3cc(O)ccc23)cc1C(=O)O,5.38 µM
7,C=CCN1C(=O)/C(=C\C=C2\N(C)c3ccccc3C2(C)C)SC1=S,inactive
8,CNC(=O)c1ccsc1NC(=O)c1sc2ccccc2c1Cl,inactive
9,Cc1ccc(-n2nc3c(N4CCC(C(=O)NCCc5cccs5)CC4)nnc(C)c3c2C)cc1,6.89 µM
10,CCCC(Oc1ccc(Br)cc1)c1nc2c3cc(OC)c(OC)cc3nc(=S)n2[nH]1 (stereo not given),> 40 µM (inactive)
11,CCCN1C(=O)S/C(=C/c2ccc(N3CCOCC3)o2)C1=O,5.84 µM
12,O=[N+]([O-])c1ccc(NCc2ccccc2)c2nonc12,1.2 µM
13,O=C(/C=C/c1cccc2ccccc12)NCCC1=CCCCC1,> 40 µM (inactive)
14,O=C(Nc1nc(-c2ccccc2)c(C(=O)c2ccccc2)s1)c1ccc(S(=O)(=O)N2CCCCC2)cc1,0.541 µM
15,CN1C(=O)CSC1=NCC12CC3CC(CC(C3)C1)C2,5.32 µM
16,Cc1ccc(-c2nn(C)c(=O)c3ccccc23)cc1S(=O)(=O)N1CCCC1,> 40 µM (inactive)
17,COc1ccc(-c2cc(-c3ccccc3)c(C#N)c(SCC(=O)Nc3ncc(C)s3)n2)cc1,3.58 µM
18,C=CCNC(=O)c1ccc(Cn2c(=S)[nH]c3cc4c(cc3c2=O)OCO4)cc1,inactive
19,O=C(CSc1ncnc2c1oc1ccccc12)c1cccs1,6.36 µM
20,Cc1c(Cl)ccc2c(C(N)=O)cc(-c3ccccn3)nc12,5.97 µM
21,N#CCCN(CCC#N)S(=O)(=O)c1ccc(C(=O)Nc2nc(-c3ccccc3)c(C(=O)c3ccccc3)s2)cc1,> 40 µM (inactive)
22,Brc1ccc2ncc(Br)cc2c1,4.22 µM
23,CC(=O)OCC1OC(n2c(-c3ccc(Cl)cc3)ccc(C#N)c2=S)C(OC(C)=O)C(OC(C)=O)C1OC(C)=O (stereo not given),inactive
24,COc1ccc(C#Cc2ccc(C3=CC(=O)CC(C)(C)C3=O)cc2)cc1,0.472 µM
25,CCCCOc1ccc(N(CC(=O)NC2CCCCC2)C(=O)c2snc(C(N)=O)c2N)cc1,> 40 µM (inactive)
26,O=c1c2ccccc2sc2ccc(Cl)cc12,3.38 µM
27,COc1ccc(-c2nc(-c3cccs3)c(-c3cccs3)[nH]2)cc1OC,5.77 µM

row,Compound,IC50
1,Cc1cc(=O)oc2cc(OCC(=O)Nc3ccc(S(=O)(=O)N(C)C)cc3)ccc12,> 40 µM (inactive)
2,O=C(Nc1ccc2c(c1)C(=O)NC2=O)c1cc(Cl)ccc1Cl,inactive
3,Cn1c(=O)c(Nc2ccc(O)cc2)c2c3c(cccc31)C(=O)c1ccccc1-2,6.77 µM
4,COC(=O)Cn1c(=NC(=O)c2nc3ccccc3s2)sc2cc(S(C)(=O)=O)ccc21,0.402 µM
5,CCOC(=O)c1c(NC(=O)CSc2nc3ccccc3s2)sc(C(C)=O)c1C,inactive
6,NS(=O)(=O)c1ccc(CCNc2nc3c(-c4cccc(F)c4)nnn3c3ccccc23)cc1,> 40 µM (inactive)
7,COc1ccc(/C=C/C(=O)NC(=S)N2CCN(c3ccccc3OC)CC2)cc1,1.65 µM
8,O=C(Nc1cccc(C(F)(F)F)c1)c1cc(Br)cc2c1OCC2,> 40 µM (inactive)
9,CCC(=O)c1cn(CC(=O)Nc2ccc(C)cc2C)c2ccccc12,1.36 µM
10,COc1cc2c3nnc(-c4ccc(F)cc4)c-3cn(Cc3ccccc3F)c2cc1OC,1.98 µM
11,Oc1ccccc1N=Nc1nc(-c2ccccc2)c(-c2ccccc2)[nH]1,3.98 µM
12,COc1ccc(-c2nn(C)c(=O)c3ccccc23)cc1NC(=O)COc1ccccc1,7.9 µM
13,CC(=O)NC(=S)Nc1ccc2oc(-c3cc(F)c(F)cc3Cl)nc2c1,3.33 µM
14,O=C(COc1ncnc2c(Cl)cc(Cl)cc12)NC1CCCCCC1,0.847 µM
15,O=c1c2ccccc2n2c(-c3ccc(F)cc3)nnc2n1Cc1ccccc1,inactive
16,COc1cc2[nH]c(=S)nc(NCCc3ccc(C)cc3)c2cc1OC,> 40 µM (inactive)
17,Cc1nn(-c2ccc(Cl)cc2)c2sc(C(=O)c3c(N)n(C)c(=O)n(C)c3=O)cc12,8.34 µM
18,CCc1cc2cc(C(=O)Nc3ccc(F)cc3)sc2s1,7.03 µM
19,C/C(N)=C(/C#N)C(=O)CSc1nc2ccccc2c(=O)n1-c1ccc(C)c(Cl)c1,> 40 µM (inactive)
20,COc1cccc(-c2nc(CS(=O)(=O)CC(=O)NCc3ccc(Cl)cc3)c(C)o2)c1,> 40 µM (inactive)
21,Cc1cc2cc(C#N)c(SCC(=O)Nc3nonc3C)nc2cc1C,1.33 µM
22,COC(=O)c1ccc(N/C=C\C(=O)c2ccc3c(c2)OCO3)cc1,7.08 µM
23,Cc1cc(NC(=O)CSc2nc3cc(C)c(C)cc3cc2C)no1,> 40 µM (inactive)
24,COc1ccc(-c2c(C)nc3c(-c4ccsc4)cnn3c2N)cc1,9.42 µM
